Measured values as given in patent publication US20120059021A1, “COMPOSITIONS AND METHODS FOR TREATING CANCER AND METHODS FOR PREDICTING A RESPONSE TO SUCH TREATMENTS” (UNIVERSITY OF WASHINGTON, priority 2008, published 2012).
“Also recorded” adds a separate entry of the source. Where a SMILES comes first, the peptide text is derived from it. The star is where a group is joined. Cbz = O=C(OCc1ccccc1)*; CH2F = FC*

Assays:
[1] = tested on: Wnt/β-catenin signaling; assay: β-catenin activated reporter (BAR) luciferase assay in A375 melanoma cells; settings: for Wnt/β-catenin signaling (BAR activity): A375, in the presence of WNT3A
From the text: By way of non-limiting example, Wnt/β-catenin signaling can be measured using the BAR reporter described in detail elsewhere herein. Briefly, the BAR (β-catenin activated reporter) is a lentiviral plasmid which provides for expression of luciferase in response to Wnt/β-catenin signaling. Output can be measured with an automated luminescence plate reader.
Detailed information on the β-catenin activated reporter (BAR) has been previously described (23). Briefly, the β-catenin activated reporter (pBAR) is a lentiviral plasmid that contains 12 TCF/LEF binding sites (5′-[sequence]-3′) each separated by distinct 5 base-pair linkers upstream of a minimal promoter and the firefly luciferase open reading frame. The reporter also contains a separate PGK promoter that constitutively drives the expression of a puromycin resistance gene for mammalian cell selection. […] PLX4720 was purchased from Symansis (Australia cat# SY-PLX4720). CHIR99021 was purchased from Axon MedChem (Gronigen, Netherlands catalog #Axon1386). Z-VAD-FMK was purchased from R&D systems (Minneapolis, Minn. cat# FMKSP01).
Low throughput BAR reporter assays. Cells were plated in 96-well plates.

[2] = tested on: A375 cells; assay: Immunoblot of apoptosis markers (cleaved caspase-3, cleaved PARP1) in A375 cells; assay type: cell-based, human
[3] = tested on: AXIN1; assay: Immunoblot of steady-state AXIN1 levels in melanoma cells; assay type: cell-based, human; settings: for levels of AXIN1 following treatment with WNT3A and PLX4720: A375, 10 μM, 8 hours, WNT3A CM and 2 μM PLX4720
[4] = tested on: BAD and Bim (BCL2L11); assay: Immunoblot of BH3-only proteins BAD and Bim in A375 cells; assay type: cell-based, human; settings: A375, addition of Z-VAD-FMK, 24 hours
[5] = tested on: ppERK1/2; assay: Immunoblot for dual-phosphorylated ERK1/2 in melanoma cells; assay type: cell-based, human; settings: for dual-phosphorylated ERK1/2 (ppERK1/2): A375
From the text: By way of non-limiting example, inhibition of ERK signaling can be measured by determining the level of dual-phosphorylated ERK1/2 (ppERK1/2) as described in detail elsewhere herein. In brief, the level of ppERK1/2 can be detected by immunoblot assay.

[6] = tested on: GSK3β; assay: Immunoblot for activating auto-phosphorylation of GSK3β in A375 cells; assay type: cell-based, human
[7] = tested on: ERK1/2 phosphorylation; assay: ERK1/2 phosphorylation in human epidermal melanocytes; assay type: cell-based; settings: HEMs
From the text: Cell Lines. The human melanoma cell lines A375, A2058 and Me1624 were obtained from Cassian Yee (Fred Hutchinson Cancer Research Institute; Seattle, Wash.). The human melanoma cell lines COLO-829, SKMEL28, SKMEL5 were purchased from ATCC (Manassas, Va.). Human Epidermal Melanocytes, adult, lightly pigmented donor, (HEMa-LP) (C0245C) were purchased from Invitrogen (Carlsbad, Calif.). Stable BAR cell lines were generated as previously described (23). BAR luciferase cell lines were also infected with a lentivirus carrying Renilla luciferase driven by a constitutive EFlalpha promoter.
Cell Culture. The human melanoma lines A375, A2058 were cultured in DMEM supplemented with 5% FBS and 1% antibiotic. The human melanoma lines SK-MEL-5 and SK-MEL-28 were grown in EMEM supplemented with 10% FBS and 1% antibiotic. The human melanoma lines COLO-829 and MEL-624 were grown in RPMI supplemented with 10% FBS and 1% antibiotic HEMa-LP cells were cultured in medium 254 supplemented with 1% HMGS and 1% antibiotic (Invitrogen Carlsbad, Calif.). Synthetic siRNAs were transfected into cultured cells at a final concentration of 20 nM using RNAiMAX (Invitrogen; Grand Island, N.Y.).

[8] = tested on: β-catenin; assay: Immunoblot for β-catenin phosphorylation at Ser33/Ser37/Thr41 in A375 cells; assay type: cell-based, human
[9] = tested on: A375; assay: qPCR of endogenous Wnt target gene AXIN2, A375; assay type: cell-based, human; settings: A375, stimulated Wnt/β-catenin signaling
From the text: RNA purification and qRT-PCR analysis. RNA was purified using the RNeasy kit following the manufacturer's protocol (Qiagen; Maryland, Md.). cDNA was synthesized using RevertAid™ M-MuLV Reverse Transcriptase (Fermentas; Ontario, CAN). Light Cycler FastStart DNA Master SYBR Green1 (Roche; Mannheim, Germany) was used for real-time PCR as previously described (53). Quantitative PCR results presented in the manuscript are averages of a minimum of three biologic replicates.

[10] = tested on: Wnt/β-catenin signaling; assay: WNT3A-mediated reporter activity in primary melanocytes; assay type: cell-based, human; settings: HEMs
[11] = XAV939 in the presence of U0126 or PLX4720

Compound: COC(=O)C[C@H](NC(=O)[C@H](C)NC(=O)[C@@H](NC(=O)OCc1ccccc1)C(C)C)C(=O)CF [Z-VAD-FMK] (Cbz-Val-Ala-Asp(OMe)-CH2F)
- Wnt/β-catenin activation as measured by BAR ([1]; A375, Z-VAD-FMK with WNT3A and 2 μM PLX4720, 24 hours): augments Wnt/β-catenin activation
- apoptosis with WNT3A and PLX4720 ([2]; A375, Z-VAD-FMK): able to inhibit apoptosis
- PARP1 cleavage induced by WNT3A and PLX4720 ([2]; A375, addition of Z-VAD-FMK, 24 hours): completely abolished
- loss of steady-state AXIN1 with WNT3A and PLX4720 ([3]; A375, Z-VAD-FMK, 24 hours): did not affect the loss of steady-state AXIN1
- increase in BimL and BimS with WNT3A and PLX4720 [4]: not blocked

Compound: Cn1cnc2c(F)c(Nc3ccc(Br)cc3Cl)c(C(=O)NOCCO)cc21 [AZD6244, 6-(4-Bromo-2-chloro-phenylamino)-7-fluoro-3-methyl-3H-benzoimidazole-5-carboxylic acid (2-hydroxy-ethoxy)-amide]
- Wnt/β-catenin signaling (BAR activity) [1]: synergistically enhanced Wnt/β-catenin activation
- dual-phosphorylated ERK1/2 (ppERK1/2) [5]: inhibition of ppERK1/2

Compound: CCN(CC)CCCC(C)Nc1ccnc2cc(Cl)ccc12 (stereo not drawn) [chloroquine]
- levels of AXIN1 following treatment with WNT3A and PLX4720 [3]: not

Compound: Cc1c[nH]c(-c2cnc(NCCNc3ccc(C#N)cn3)nc2-c2ccc(Cl)cc2Cl)n1 [CHIR99021, 6-[[2-[[4-(2,4-dichlorophenyl)-5-(5-methyl-1H-imidazol-2-yl)-2-pyrimidinyl]amino]ethyl]amino]-3-pyridinecarbonitrile]
- apoptosis (cleaved caspase-3 immunoblot) ([2]; A375, 5 μM CHIR99021 and 2 μM PLX4720, 36 hours): enhanced apoptosis in combination with PLX4720
- activating auto-phosphorylation of GSK3B [6]: loss of the activating auto-phosphorylation at Tyr216

Compound: Oc1nc(-c2ccc(C(F)(F)F)cc2)nc2c1CSCC2 [XAV939]
- reversal of enhancement of Wnt/β-catenin signaling by MAPK inhibition [1, 11]: unable to completely reverse the enhancement of Wnt/β-catenin signaling by MAPK inhibition
- steady-state levels of AXIN1 ([3]; XAV939, absence and presence of rWnt3A): increases steady-state levels of AXIN1
- AXIN1 protein levels [3, 11]: elevate AX1N1 protein levels to above baseline levels

Compound: CC(C)C[C@@H](C=O)NC(=O)[C@H](CC(C)C)NC(=O)[C@H](CC(C)C)NC(=O)OCc1ccccc1 [MG132] (Cbz-Leu-Leu-Leu-aldehyde)
- levels of AXIN1 following treatment with WNT3A and PLX4720 [3]: increased the levels of AXIN1

Compound: N#CC(=C(/N)Sc1ccccc1N)/C(C#N)=C(\N)Sc1ccccc1N [U0126, 1,4-diamino-2,3-dicyano-1,4-bis [2-aminophenylthio]butadiene]
- Wnt/β-catenin signaling (BAR activity) [1]: synergistically enhanced Wnt/β-catenin activation; also recorded: dose-dependent increase in stimulated Wnt/β-catenin signaling
- dual-phosphorylated ERK1/2 (ppERK1/2) [5]: inhibition of ppERK1/2
- ERK1/2 phosphorylation ([5]; six established melanoma lines harboring the BRAF^V600E mutation): inhibition of ERK1/2 phosphorylation
- steady-state levels of AXIN1 ([3]; absence of rWnt3A): slightly decreased
- steady-state levels of AXIN1 ([3]; presence of rWnt3A): markedly diminished
- activating auto-phosphorylation of GSK3B [6]: loss of the activating auto-phosphorylation of GSK3B at Tyr117
- ERK1/2 phosphorylation [7]: inhibits ERK1/2 phosphorylation in a dose-dependent manner
- phosphorylation of β-catenin at GSK3β sites (Ser33/Ser37/Thr41) [8]: decreased phosphorylation of β-catenin
- levels of the endogenous Wnt/β-catenin target gene AXIN2 [9]: dose-dependent increase
- Wnt/β-catenin signaling [10]: inhibited Wnt/β-catenin signaling
